Consider two molecules from patent US5801017A, “Production of recombinant factor Xa inhibitor of leech Hirudo medicinalis” (Bio-Technology General Corp., priority 1994, dated 1998).

One data set has as its system FXa. The data set can be described thus: chromogenic FXa inhibitory activity assay (hydrolysis of CHG). It counts as biochemical, bovine. As to the method: Increasing amounts of FXaI purified on Mono-Q were preincubated for 3 minutes with 2 pmol bovine FXa in a 1 ml cuvette. The initial rate of hydrolysis of the substrate CHG was monitored at 405 nm (see Example 2). Fraction 47 was the peak fraction of a particular purification experiment.
The assay of FXa inhibitory activity is based on the inhibition of the FXa-mediated hydrolysis of the chromogenic substrate methoxycarbonyl-D-cyclohexylglycyl-glycyl-arginyl p-nitroanilide (CHG) as described below.
The appropriate substrate concentration was determined from the molar absorbance which is 8210 at 342 nm. The reaction mixture contains 50 mM Tris-HCl pH 8.2, 5 mM CaCl2, 200 mM NaCl, 0.1% PEG, 40 μM substrate, and approximately 2 nM FXa. The FXa concentration is determined more precisely from the initial (first 20 seconds) rate of CHG hydrolysis at 40 μM in the absence of inhibitor based on the kinetic parameters mentioned above.
Inhibition of the increase in absorbance may be observed in the presence of the FXa inhibitory activity of an FXa inhibitor such as FXaI of the present invention. The inhibitor concentration is the difference in absorbance between the reaction in the presence and absence of inhibitor multiplied by the FXa concentration.
This determination assumes the formation of a 1:1 enzyme-inhibitor complex, and further assumes that the dissociation constant is low enough (i.e., tight binding) to enable essentially total binding of the inhibitor (FXaI) to the enzyme (FXa). In fact, the saturation shape of the dose-response curve (FIG. 3) provides evidence that a finite and not negligible dissociation of the inhibitor-enzyme complex occurs under these conditions. The dose response curve is represented by the degree of inhibition versus FXaI concentration and is further described in Section 5.2.
The degree of dissociation of the FXa-FXaI complex is characterized by the inhibition constant (Ki) and may be determined from the inhibited velocity of the hydrolysis of the chromogenic substrate CHG. […] The Ki of naturally occurring FXa in the chromogenic assay is about 9 nM.
The determination of inhibitor concentration determined by the above method is therefore probably underestimated. It was found useful to define the FXaI concentration as the protein concentration (IC50) required to obtain a constant degree of inhibition, usually 50% and to define the amount causing 50% inhibition under these reaction conditions to be 1 milliunit (mu) or 1 pmol. IC50 is generally higher than Ki, and depending on the type of inhibition, can be shown to depend variously on substrate concentration, Ki, Km and other factors (Segel, I. (1974) "Enzyme Kinetics", Wiley Interscience). In fact, the range of values of IC50 was determined to be about 10-20 nM.
The FXaI activity assay used to determine concentration during purification and characterization was performed in an Elisa Titertek Twin Reader, Type 380 (EF LAB). The final activity measurement of purified protein was also performed in a Phillips (model PU 8720) UV/Vis scanning spectrophotometer.

Data set [1] has as its target FXa in a prothrombinase complex. The data set can be described thus: FXa inhibitory activity in the prothrombinase complex (thrombin generation). Format: biochemical. As to the method: The inhibitory activity of FXaI may also be assayed by its effect on FXa in a prothrombinase complex. The phospholipid used was rabbit brain cephalin (Sigma). The contents of one vial, suspended in 1 ml 0.15M NaCl were diluted 1:40 in the reaction mixture, i.e. 2.5 μl/100 μl. The concentrations of the other components were: FXa 250 pM, prothrombin 2.67 μM, FVa 4.2 nM and Ca^++ 1 mM in 20 mM Tris-HCl pH 7.4/150 mM NaCl/0.1% polyethylene glycol 6000. Following 10 minutes of preincubation at 37° C., the reaction was initiated by the addition of prothrombin. Aliquots were removed at various time intervals. The reaction was stopped by 10 mM EDTA and aliquots were kept on ice until assayed. The inhibition of FXa by a FXa inhibitor (e.g. FXaI of the present invention) was observed as the effect of FXaI on the generation of thrombin from prothrombin at 37° C. The amount of thrombin generated was assayed using 80 μg of the synthetic thrombin p-nitroanilide substrate S-2238 (KabiVitrum, Sweden) at 23° C.

The next data set concerns Plasmin. Kind of data set: inhibition of plasmin (S2251). The conditions noted are these: substrate S2251. It counts as biochemical. The method, then:
(§1) Inhibition of bovine trypsin by naturally occurring FXaI was calculated following the classical dose response method. Ki values were obtained by plotting the percentage of activity of FXaI (determined by the calorimetric assay described below) against the ratio of the concentrations of inhibitor and enzyme. The calorimetric assay was performed using 80 μM Chromozyme TH (Pentapharm, Switzerland) as substrate in 10 mM Tris-HCl, 10 mM Hepes (pH 7.8), 100 mM NaCl, 0.1% PEG 6000 at 25° C. in the presence of 3.83 or 4.27 nM bovine trypsin. Inhibitor and enzyme were preincubated for 10 min at 25° C. before adding the substrate.
(§2) Plasmin and thrombin were not inhibited by naturally occurring FXaI in a similar assay as that for trypsin. In the case of thrombin, the substrate used was the same as that used for trypsin; in the case of plasmin, S2251 was used as substrate.

For data set [2], the system named is thrombin. The data set can be described thus: inhibition of thrombin (Chromozyme TH). It counts as biochemical. Conditions: substrate Chromozyme TH. The method, then:
as §1, §2

Data set [3] can be described thus: pharmacokinetic study in mice, ex vivo APTT. Set-up: species or system Female Balb/c mice. Conditions: for Mean APTT: ex vivo, i.v. 5.25 μg/mouse. The method, then: The clearance of FXaI from the blood of female mice was monitored over a period of 30 minutes by assessing the ex vivo APTT (see FIG. 4) at the time points indicated. The amount of FXaI is expressed as μg FXaI [Macart and Gerbaut, Clin. Chim. Acta 122:93-101 (1982)], determined from a calibration curve consisting of in vitro APTT time versus inhibitor concentration as shown in FIG. 5B.
A preliminary pharmacokinetic experiment was performed in order to assess the clearance rate of FXaI from the circulatory system. Female Balb/c mice (20-25 gm body weight) were injected intravenously with purified FXaI (isoform A; 5.25 μg protein/mouse in 0.2 ml saline). Blood samples were drawn into 1/10 v/v 3.8% citrate at 1, 3, 10 and 30 min after injection. It was possible to obtain only one blood sample from each mouse and therefore each timepoint is from a different mouse. The plasma was then separated and assayed for APTT. The concentration of FXaI was calculated from a calibration curve of APTT versus FXaI concentration which was constructed in vitro by adding various amounts of FXaI to a plasma pool from untreated mice FIG. 5B.

For data set [4], the system named is thrombin. Kind of data set: thrombin inhibition assay according to Lottenberg et al. It counts as biochemical. As to the method:
The refolded and dialyzed protein so obtained was assayed for FXa inhibitory activity by the biochemical chromogenic assay described in Example 2. The results are shown in Table 6 as milliunits per mg protein (mu/mg). The amount of protein causing 50% inhibition in an assay mixture containing 2 nM FXa is defined as 1 mu. In addition, the refolded protein was also tested for its inhibitory effect on thrombin, another proteolytic enzyme of the coagulation cascade, which was assayed according to Lottenberg et al. Methods Enzymol. 80:341-361 (1981).

The test system of another data set is plasma. Kind of data set: APTT doubling by recombinant mature FXaI. Format: biochemical. The method, then:
The inhibitory activity of FXaI was also assayed as the increase of the activated partial thromboplastin time (APTT) essentially as described in Spaethe, Haemostasis, AHS/Deutschland GmbH, Munich (1984), using as reagent Actin FS (Dade), which contains ellagic acid for activation of Factors XII and Factor XI, and soy bean phospholipid. Under these conditions, and in the presence of 20 mM CaCl2, only the intrinsic pathway of coagulation is activated.

Values joined by “and” are separate entries in the source; they are usually repeats but may differ in a detail not shown here. Equal values may be shown once. Read-outs that look alike come from different tables or passages of the source. Where only a bound is given, the exact number is not on record here.

As for “naturally occurring FXaI: FXa inhibitor protein isolated from dilute leech saliva (DLS) of the leech Hirudo medicinalis; 14 kD monomer”, in the data set on FXa (1 mu = amount causing 50% inhibition with 2 nM FXa), the “Inhibitory activity (specific activity), FXa” value is 507 mu/mg. For the same molecule, the IC50 was 10 to 20 nM with FXa (chromogenic assay, read-out: IC50 (protein concentration for 50% inhibition)) and 0.19 nM in data set [1] (250 pM FXa, 2.67 μM prothrombin). The Ki (in general, a measure of affinity in units of concentration, obtained from inhibition or displacement) amounted to 0.12 nM in data set [1] (50 pM FXa, 1.35 μM prothrombin, read-out: Ki in prothrombinase complex assay, modified protocol) and 0.072 nM in data set [1] (250 pM FXa, 2.67 μM prothrombin, read-out: Ki in prothrombinase complex assay). Besides, in the data set on Plasmin, the inhibition of plasmin result is recorded as “not inhibited”. Moreover, the inhibition of thrombin result in the data set with thrombin [2] is reported as “not inhibited”. Also, the “FXaI calculated from the calibration curve” value was 0.3150 µg in data set [3] (1 min post-injection); 0.243 µg and 0.174 µg in data set [3] (3 min post-injection); 0.1245 µg in data set [3] (10 min post-injection); 0 µg in data set [3] (30 min post-injection). Moreover, the “Mean APTT” value was 91 s in data set [3] (1 min post-injection); 79 s and 66 s in data set [3] (3 min post-injection); 55 s in data set [3] (10 min post-injection); 29 s and 30 s in data set [3] (30 min post-injection). The “half life of plasma inhibitor activity” value in data set [3] (mice, intravenous, 5.25 μg protein/mouse) is “about 7.5 min”. The “Inhibitory activity (specific activity), Thrombin” value in the data set on thrombin [4] is listed as under 1 mu/mg.

B1: mature FXaI: recombinant FXaI obtained by enterokinase cleavage of the pFSHI-6 prepeptide, about 15 kD (protein)
chain: YEVIYVDDPCEDSDCEDGNKCSPVTNECDCSPVRCRLHCNFYVKDSNGCETCACEPKCKHKNCPTGHHCNKLTNKCELKKQRRMG
As to B1, the “FXa inhibitory specific activity” value is given as at most 8000 mu/mg protein in the data set with FXa (after removal of the extension peptide from the cleavage solution by chromatography) and 4000-4500 mu/mg protein in the data set with FXa (following cleavage with enterokinase). In addition, the “concentration causing doubling of the APTT” value in the data set with plasma is 12.2 µg/mL.
